Values after ≈ are worked out from the molar mass of the structure shown. Values joined by “and” are separate entries in the source; they are usually repeats but may differ in a detail not shown here. Equal values may be shown once. Read-outs that look alike come from different tables or passages of the source.
Tests used:
Assay type in all cases: physicochemical
[1] = Stability test (influencing factors: light, high temperature, high humidity); conditions: for stability under high temperature and high humidity conditions (in words): 60° C., 92.5% RH
Method: Test process: An appropriate amount of each test sample was placed on a clean watch glass without a lid and then placed under the conditions of light 4500 lx±500 lx, high temperature of 60° C., high humidity of 92.5% RH for 5 days and 10 days, respectively. The properties and related substances were determined and the results were compared with the results at day 0 to observe the stability.
The test method for related substances was as follows.
Preparation of test sample solution: About 10 mg of each test sample was placed in a 10 ml volumetric flask, and 50% acetonitrile aqueous solution was added to dissolve sample, and diluted to the mark, shaken well, and filtered to obtain the test sample solution. A precise amount of 10 μl of the test sample solution was taken and injected according to the above chromatographic method, and the maximum single impurity and total impurity were calculated according to the area normalization method.

[2] = Dissolution test of capsules (Chinese Pharmacopoeia 2015, General Method 0931, 2nd Method); conditions: for Dissolution rate, Mean (%), 5 min / Dissolution rate, Mean (%), 10 min / Dissolution rate, Mean (%), 15 min / Dissolution rate, Mean (%), 20 min / Dissolution rate, Mean (%), 30 min / Dissolution rate, Mean (%), 45 min: mean of 6 capsules; for Dissolution rate, Mean (%), 5 min / Dissolution rate, Mean (%), 10 min / Dissolution rate, Mean (%), 15 min / Dissolution rate, Mean (%), 20 min / Dissolution rate, Mean (%), 30 min / Dissolution rate, Mean (%), 45 min / Dissolution rate, 5 min / Dissolution rate, 10 min / Dissolution rate, 15 min / Dissolution rate, 20 min / Dissolution rate, 30 min / Dissolution rate, 45 min: purified water, 50 rpm; for Dissolution rate, 5 min / Dissolution rate, 10 min / Dissolution rate, 15 min / Dissolution rate, 20 min / Dissolution rate, 30 min / Dissolution rate, 45 min: single capsules 1-6, hydrate
Method: The hydrates obtained hereinabove and the compound of formula A were tested for dissolution rate. The test method was as follows.
Step 1: Pretreating Raw Materials
The samples were passed through a 100 mesh sieve.
Step 2: Blending Raw Materials with Auxiliary Materials
The raw materials and lactose were weighed according to the prescription, mixed in equal increment, sieved and mixed.
The capsules were filled via a capsule filling plate and sealed. The difference of the filling amount was controlled to ±5%. The appearance was inspected to ensure that the sealing was correct and there was no split or deformation.
Test method: dissolution test method (Chinese Pharmacopoeia, edited in 2015, Chapter 4, General Method 0931, the 2nd Method)
Dissolution medium: aqueous solution
Specific test method: The sample was tested following the dissolution test method (Chinese Pharmacopoeia, edited in 2015, Chapter 4, General Method 0931, the 2nd Method). 900 ml aqueous solution was used as the dissolution medium. The speed was 50 rpm. The test was performed in accordance with the method. […] After filtration, the filtrate was precisely measured and quantitatively diluted with the dissolution medium to prepare a solution containing about 10 μg of sample per 1 ml. The absorbance was measured by at 231 nm by UV-Vis spectrophotometry (Chinese Pharmacopoeia, edited in 2015, Chapter 4, General Method 0931, the 2nd Method). An appropriate amount of the control sample was taken, weighed accurately, dissolved in dissolution medium and diluted quantitatively to prepare a solution containing about 10 μg of the sample per 1 ml, and then measured in the same way. The amount of dissolution per capsule was calculated.

[3] = Solubility test in media with different pH; conditions: for solubility: thermodynamic from solid, room temperature of 25° C.
Method: The hydrates obtained as above and the compound of formula A were tested for solubility in solutions with different pH. The test method was as follows.
1.1. Preparation of the Media with Different pH
pH1.0 medium: 9.0 mL of hydrochloric acid was diluted to 1000 mL with water and shaken well to obtain the medium.
pH4.5 medium: 6.80 g of potassium dihydrogen phosphate (KH2PO4) was dissolved in water and diluted to 1000 mL, adjusted to pH4.5 with phosphoric acid or sodium hydroxide, and shaken well to obtain the medium.
pH6.8 medium: 55.38 g of disodium hydrogen phosphate (Na2HPO4.12H2O) and 4.77 g of citric acid (C6H8O7.H2O) were dissolved in water and diluted to 1000 mL, adjusted to pH6.8 with phosphoric acid or sodium hydroxide, and shaken well to obtain the medium.
Pure water medium: purified water.
Test method: To a certain amount of test samples, the media with different pH were added gradually, respectively. The mixture was shaken continuously until it reached saturation. The weighing amount of the test sample and the amount of solvent were recorded and the concentration when the sample was dissolved was calculated.

[4] = high temperature 60° C., Day 10
[5] = light condition 4500 lx±500 lx, Day 5
[6] = light condition 4500 lx±500 lx, Day 10

Row | Compound | stability under high temperature and high humidity conditions (in words) ([1]; 5 and 10 days) | maximum single impurity % ([1]; Day 0) [%] | property ([1]; Day 0) | total impurity % ([1]; Day 0) [%] | maximum single impurity % ([1]; high humidity 92.5% RH, Day 5) [%] | property ([1]; high humidity 92.5% RH, Day 5) | total impurity % ([1]; high humidity 92.5% RH, Day 5) [%] | maximum single impurity % ([1]; high humidity 92.5% RH, Day 10) [%] | property ([1]; high humidity 92.5% RH, Day 10) | total impurity % ([1]; high humidity 92.5% RH, Day 10) [%] | maximum single impurity % ([1]; high temperature 60° C., Day 5) [%] | property ([1]; high temperature 60° C., Day 5) | total impurity % ([1]; high temperature 60° C., Day 5) [%] | maximum single impurity % [1, 4] [%] | property [1, 4] | total impurity % [1, 4] [%] | maximum single impurity % [1, 5] [%] | property [1, 5] | total impurity % [1, 5] [%] | maximum single impurity % [1, 6] [%] | also measured
1 | CN([C@@H]1CCc2c(CC(=O)O)c3cccnc3n2C1)S(=O)(=O)c1ccc(F)cc1 (racemic) [Compound A] | relatively stable | 0.08 | white powder | 0.32 | 0.08 | white powder | 0.31 | 0.07 | white powder | 0.26 | 0.07 | white powder | 0.24 | 0.08 | white powder | 0.25 | 4.66 | light yellow powder | 5.28 | 15.02 | stability under light condition (in words) ([1]; light 4500 lx±500 lx, 5 and 10 days): degrades significantly; property [1, 6]: light yellow powder; total impurity % [1, 6]: 15.25%; dissolution rate (in words) ([2]; same method, aqueous dissolution medium): basically zero; water solubility at different pH (comparison in words) ([3]; pH 1.0, 4.5, 6.8 and purified water): poor water solubility; solubility ([3]; pH 1.0 medium (dilute hydrochloric acid), pH 1, simulated gastric fluid, pH1.0 medium, read-out: Solubility, pH = 1.0): 1.25 µg/mL (≈ 2.99 µM); solubility ([3]; pH 4.5 medium (potassium dihydrogen phosphate solution), pH 4.5, aqueous buffer, pH4.5 medium, read-out: Solubility, pH = 4.5): 1.67 µg/mL (≈ 4 µM); solubility ([3]; pH 6.8, aqueous buffer, pH6.8 medium, read-out: Solubility, pH = 6.8): 2 µg/mL (≈ 4.79 µM); solubility ([3]; purified water, read-out: Solubility, purified water): 2 µg/mL (≈ 4.79 µM); solubility in water (in words) ([3]; water): insoluble in water
2 | CN([C@@H]1CCc2c(CC(=O)[O-])c3cccnc3n2C1)S(=O)(=O)c1ccc(F)cc1.[Li+] [Lithium salt hydrate] | relatively stable | 0.59 | white powder | 0.87 | 0.55 | white powder | 0.72 | 0.56 | white powder | 0.76 | 0.56 | white powder | 0.79 | 0.56 | white powder | 0.78 | 0.61 | light yellow powder | 0.93 | 0.78 | property [1, 6]: light yellow powder; total impurity % [1, 6]: 1.21%; Dissolution rate, Mean (%), 5 min [2]: 34.6%; Dissolution rate, Mean (%), 10 min [2]: 67.4%; Dissolution rate, Mean (%), 15 min [2]: 79.8%; Dissolution rate, Mean (%), 20 min [2]: 85.3%; Dissolution rate, Mean (%), 30 min [2]: 85.2%; Dissolution rate, Mean (%), 45 min [2]: 85.7%; Dissolution rate, 5 min [2]: 36.5% and 42.6% and 34.7% and 34.4% and 35.6% and 23.9%; Dissolution rate, 10 min [2]: 78.7% and 75.4% and 74.4% and 60.4% and 74.8% and 40.4%; Dissolution rate, 15 min [2]: 83.6% and 82.7% and 83.4% and 81.4% and 81.3% and 66.1%; Dissolution rate, 20 min [2]: 84.3% and 87% and 85.9% and 84.9% and 85.5% and 84.4%; Dissolution rate, 30 min [2]: 85.9% and 85.2% and 85.8% and 84.6% and 84.4% and 85.3%; Dissolution rate, 45 min [2]: 85.5% and 85.6% and 88.3% and 84.2% and 85.3%
3 | CN([C@@H]1CCc2c(CC(=O)[O-])c3cccnc3n2C1)S(=O)(=O)c1ccc(F)cc1.[K+] [Potassium salt hydrate] | relatively stable | 0.34 | white powder | 0.49 | 0.34 | Molten solid | 0.45 | 0.31 | colorless liquid | 0.48 | 0.34 | white powder | 0.45 | 0.33 | white powder | 0.45 | 0.33 | light yellow powder | 0.72 | 0.33 | property [1, 6]: light yellow powder; total impurity % [1, 6]: 0.88%; Dissolution rate, Mean (%), 5 min [2]: 31.6%; Dissolution rate, Mean (%), 10 min [2]: 74.1%; Dissolution rate, Mean (%), 15 min [2]: 83.0%; Dissolution rate, Mean (%), 20 min [2]: 85.6%; Dissolution rate, Mean (%), 30 min [2]: 87.0%; Dissolution rate, Mean (%), 45 min [2]: 86.9%; Dissolution rate, 5 min [2]: 30.7% and 28.9% and 24.1% and 34.9% and 41.7% and 29.6%; Dissolution rate, 10 min [2]: 80.4% and 53.3% and 81.5% and 72.3% and 77.6% and 79.2%; Dissolution rate, 15 min [2]: 83.7% and 80.8% and 87.4% and 84.4% and 79.5% and 82.1%; Dissolution rate, 20 min [2]: 86.4% and 83.1% and 89.2% and 87.8% and 83.0% and 84.1%; Dissolution rate, 30 min [2]: 86.9% and 86.7% and 90.2% and 87.4% and 85.0% and 85.6%; Dissolution rate, 45 min [2]: 85.6% and 86.7% and 91.3% and 87.0% and 85.8% and 84.9%

From US20220098197A1, “SALTS OF HETEROCYCLIC COMPOUND AND USE THEREOF” (priority 2019, published 2022)
